For one molecule, ED50 and ED (30 mm Hg) results are on record in patent EP0403158A2, “Imidazolyl-alkenoic acids” (SMITHKLINE BEECHAM CORPORATION, priority 1989, dated 1990).

For test [1], the system named is pressor response to exogenous angiotensin II. The test is described as follows: Inhibition of pressor response to angiotensin II in conscious rats. Format: in vivo. To be noted: Rattus norvegicus, i.v., change in mean arterial pressure after intravenous 250 mg/kg angiotensin II, read-out: IC50 (dose of compound needed to produce 50% inhibition of the control response to angiotensin II). How it is done:
(§1) Angiotensin II antagonist activity of the compounds of Formulas (I) and (IA) is assessed by in vitro and in vivo methods. In vitro antagonist activity is determined by the ability of the compounds to compete with ¹²⁵I-angiotensin II for binding to vascular angiotensin II receptors and by their ability to antagonize the contractile response to angiotensin II in the isolated rabbit aorta. In vivo activity is evaluated by the efficacy of the compounds to inhibit the pressor response to exogenous angiotensin II in conscious rats and to lower blood pressure in a rat model of renin dependent hypertension.
Rats are prepared with indwelling femoral arterial and venous catheters and a stomach tube (Gellai et al., Kidney Int. 15:419, 1979). Two to three days following surgery the rats are placed in a restrainer and blood pressure is continuously monitored from the arterial catheter with a pressure transducer and recorded on a polygraph. The change in mean arterial pressure in response to intravenous injections of […] angiotensin II is compared at various time points prior to and following the administration of the compounds intravenously or orally at doses of 3 to 300 mg/kg. The dose of compound needed to produce 50% inhibition of the control response to angiotensin II (IC₅₀) is used to estimate the potency of the compounds. […]

For test [2], the system named is mean arterial pressure in conscious rats made renin dependent hypertensive. The test is described as follows: Antihypertensive activity in renal artery ligated (renin dependent hypertensive) conscious rats. Type of test: in vivo. The conditions noted are these: Rattus norvegicus, iv, seven to eight days following ligation, read-out: IC30 (dose of compound needed to reduce mean arterial pressure by 30 mm Hg). As for the experimental part:
as §1
The antihypertensive activity of the compounds is measured by their ability to reduce mean arterial pressure in conscious rats made renin dependent hypertensive by ligation of the left renal artery (Cangiano et al., J. Pharmacol. Exp. Ther. 208:310, 1979). Renal artery ligated rats are prepared with indwelling catheters as described above. Seven to eight days following renal artery ligation, the time at which plasma renin levels are highest, the conscious rats are placed in restrainers and mean arterial pressure is continuously recorded prior to and following the administration of the compounds intravenously or orally. The dose of compound needed to reduce mean arterial pressure by 30 mm Hg (IC₃₀) is used as an estimate of potency. […]

In the case of `CCCCc1ncc(/C=C(\Cc2ccccc2)C(=O)O)n1Cc1ccccc1Cl` [(E)-3-[2-n-butyl-1-{(2-chlorophenyl)methyl}-1H-imidazol-5-yl]-2-benzyl-2-propenoic acid], the ED50 in test [1] turned out to be 14 mg/kg. The ED (30 mm Hg) in test [2] was 10 mg/kg.
